According to BigSolDB 2.1:

CCn1c2ccccc2c2ccccc21
solubility (mole fraction)
Conditions | in ethanol | in isopropanol | in methanol | in n-butanol | in n-pentanol | in n-propanol
279.15 K | 0.0069 | 0.0065 | 0.0028 | 0.0135 | – | 0.0092
283.15 K | 0.008 | 0.0076 | 0.0033 | 0.0151 | 0.016 | 0.0105
287.15 K | 0.0095 | 0.009 | 0.004 | 0.0172 | 0.0183 | 0.0124
291.15 K | 0.0112 | 0.0107 | 0.0047 | 0.0208 | 0.021 | 0.0142
295.15 K | 0.013 | 0.0127 | 0.0057 | 0.0234 | 0.025 | 0.0169
299.15 K | 0.0149 | 0.0152 | 0.0068 | 0.0271 | 0.0292 | 0.0202
303.15 K | 0.0182 | 0.0183 | 0.0082 | 0.0316 | 0.035 | 0.024
307.15 K | 0.0228 | 0.0223 | 0.0098 | 0.0379 | 0.042 | 0.028
311.15 K | 0.0274 | 0.028 | 0.012 | 0.0446 | 0.05 | 0.033
315.15 K | 0.0355 | 0.0342 | 0.0147 | 0.0522 | 0.0609 | 0.0401
319.15 K | 0.0433 | 0.0436 | 0.0179 | 0.0621 | 0.0743 | 0.048
